Results as given in US20120220567A1, “BENZO-FUSED OXAZEPINE COMPOUNDS AS STEAROYL-COENZYME A DELTA-9 DESATURASE INHIBITORS” (priority 2009, published 2012).

biological target: T1, SCD-1 (Homo sapiens, UniProt O00767); assay: Stearoyl-CoA desaturase assay (HepG2 cell P2 pellet); format: biochemical; conditions: Table 1, compounds of formula (Ia); protein from HepG2 cell P2 pellet, 20 μM stearoyl-CoA, 15 min at 25° C.; read-out: Ave IC50
T1 construct: 50 μg of protein from a HepG2 cell P2 pellet; endogenous in cells; host or cells: HepG2 cells (P2 pellet)
T1 sequence (O00767 1-359): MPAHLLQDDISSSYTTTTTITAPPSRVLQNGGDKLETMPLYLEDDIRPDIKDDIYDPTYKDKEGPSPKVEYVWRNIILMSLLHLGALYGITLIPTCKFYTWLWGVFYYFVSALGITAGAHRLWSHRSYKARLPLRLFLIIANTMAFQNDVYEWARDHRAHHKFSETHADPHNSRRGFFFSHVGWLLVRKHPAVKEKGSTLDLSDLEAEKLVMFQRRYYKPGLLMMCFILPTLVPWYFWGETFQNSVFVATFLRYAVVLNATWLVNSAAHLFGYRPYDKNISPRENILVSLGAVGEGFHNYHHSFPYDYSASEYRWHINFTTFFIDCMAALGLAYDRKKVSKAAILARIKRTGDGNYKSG
Procedure: Stearoyl-CoA desaturase assays were performed in according to Talamo and Bloch. […] Assays were run in triplicate in 100-μl volumes of 100 mM TrisHCl, pH 7.3, containing 20 μM stearoyl-CoA, 2 mM β-NADH, and 50 μg of protein from a HepG2 cell P2 pellet. Since SCD-1 is the only isoform of SCD expressed in these cells, the assay is specific for SCD-1 with these cells as the source of enzyme. Reaction mixtures were incubated fifteen minutes at 25° C. and reactions were then stopped with a volume of trichloroacetic acid giving a final concentration of 0.2%. After five minutes, a 90-μl volume was transferred to a Millipore Multiscreen HTS 96-well filtration plate (MSHVN4B50) containing 125 μl of 10% charcoal in each well, to which vacuum had been previously applied. Plates were shaken fifteen minutes and then filtered into a collection plate. Fifty-μI volumes of filtrate were transferred to another plate containing 150 μl of MicroScint 40 for counting on a TopCount scintillation counter.

**Q.** With `CCc1ccc(CN2CCC3(CCN(C(=O)C(CO)NC(C)=O)CC3)Oc3ccccc32)cc1` (stereo not drawn) [Compound 2] as the compound, how does the IC50 read?
**A.** > 10000 nM

**Q.** For `CC(=O)NCC(=O)N1CCC2(CC1)CCN(Cc1ccc(Br)s1)c1ccccc1O2` [Compound 34], which IC50 is on record?
**A.** 500 to 10000 nM

**Q.** For `CCc1ccc(CN2CCC3(CCN(C(=O)[C@@H](C)NC(C)=O)CC3)Oc3ccccc32)cc1` [Compound 4], which IC50 is on record?
**A.** 500 to 10000 nM

**Q.** How did the IC50 turn out when `CCc1ccc(CN2CCC3(CCN(C(=O)CNC(=O)Cc4cn(C)cn4)CC3)Oc3ccccc32)cc1` [Compound 11] was run?
**A.** 500 to 10000 nM

**Q.** For `CC(C)(C)c1ccc(CN2CCC3(CCN(C(=O)CNC(=O)c4cccs4)CC3)Oc3ccccc32)cc1` [Compound 44], which IC50 is on record?
**A.** 50 to 499 nM

**Q.** With `CCc1ccc(CN2CCC3(CCN(C(=O)CNC(=O)CC4CC4)CC3)Oc3ccccc32)cc1` [Compound 7] as the compound, how does the IC50 read?
**A.** 50 to 499 nM

**Q.** `CC(=O)NCC(=O)N1CCC2(CC1)CCN(Cc1ccc(Cl)s1)c1ccccc1O2` [Compound 33] was tested. Which IC50 did it give?
**A.** 500 to 10000 nM

**Q.** `CCc1ccc(CN2CCC3(CCN(C(=O)CNC(=O)CCN(C)C)CC3)Oc3ccccc32)cc1` [Compound 9] was tested. Which IC50 did it give?
**A.** > 10000 nM

**Q.** Which IC50 does the source give for `CC(=O)NCC(=O)N1CCC2(CC1)CCN(Cc1ccc(OC(F)(F)F)cc1)c1ccccc1O2` [Compound 22] here?
**A.** 500 to 10000 nM

**Q.** `COC(=O)c1cccc(CN2CCC3(CCN(C(=O)CNC(C)=O)CC3)Oc3ccccc32)c1` [Compound 25] was tested. Which IC50 did it give?
**A.** 500 to 10000 nM

**Q.** With `CC(=O)NCC(=O)N1CCC2(CC1)CCN(Cc1ccc(F)cc1)c1ccccc1O2` [Compound 27] as the compound, how does the IC50 read?
**A.** 50 to 499 nM

**Q.** Which IC50 does the source give for `COc1ccc(CN2CCC3(CCN(C(=O)CNC(C)=O)CC3)Oc3ccccc32)cc1F` [Compound 31] here?
**A.** 500 to 10000 nM

**Q.** With `CCc1ccc(CN2CCC3(CCN(C(=O)CNC(C)=O)CC3)Oc3c(F)cccc32)cc1` [Compound 47] as the compound, how does the IC50 read?
**A.** 500 to 10000 nM

same assay, conditions: Table 2, compounds of formula (Ib); protein from HepG2 cell P2 pellet, 20 μM stearoyl-CoA, 15 min at 25° C.; read-out: Ave IC50

**Q.** `CC(C)(C)c1ccc(CN2CCC3(CCN(c4ncc(C(=O)NCC[C@H]5CC[C@H](O)C5)s4)CC3)Oc3c(F)cccc32)cc1` [Compound 80] was tested. Which IC50 did it give?
**A.** 500 to 10000 nM

**Q.** For `CC(C)(C)c1ccc(CN2CCC3(CCN(c4ncc(-c5ccccc5)s4)CC3)Oc3ccccc32)cc1` [Compound 138], which IC50 is on record?
**A.** 500 to 10000 nM

**Q.** How did the IC50 turn out when `Cn1cnc(-c2cnc(N3CCC4(CC3)CCN(Cc3ccc(C(C)(C)C)cc3)c3ccccc3O4)s2)n1` [Compound 73] was run?
**A.** 0.5 to 49 nM

**Q.** `Cc1n[nH]c(C)c1CCNC(=O)c1cnc(N2CCC3(CC2)CCN(Cc2ccc(C(C)(C)C)cc2)c2cccc(F)c2O3)s1` [Compound 100] was tested. Which IC50 did it give?
**A.** > 10000 nM

**Q.** For `CC(C)(C)c1ccc(CN2CCC3(CCN(c4ncc(-c5cncnc5)s4)CC3)Oc3ccccc32)cc1` [Compound 135], which IC50 is on record?
**A.** 50 to 499 nM

**Q.** With `CC(C)(C)c1ccc(CN2CCC3(CCN(c4ncc(C(=O)NCC(O)c5ccccn5)s4)CC3)Oc3c(F)cccc32)cc1` (stereo not drawn) [Compound 118] as the compound, how does the IC50 read?
**A.** 50 to 499 nM

**Q.** `CC(C)(C)c1ccc(CN2CCC3(CCN(c4ncc(C(=O)NCCN5CCNC5=O)s4)CC3)Oc3c(F)cccc32)cc1` [Compound 113] was tested. Which IC50 did it give?
**A.** 500 to 10000 nM

**Q.** How did the IC50 turn out when `CC(C)(C)c1ccc(CN2CCC3(CCN(c4ncc(C(=O)NCc5ccccc5)s4)CC3)Oc3ccccc32)cc1` [Compound 67] was run?
**A.** 500 to 10000 nM

**Q.** How did the IC50 turn out when `CC(C)(C)c1ccc(CN2CCC3(CCN(c4ncc(C(=O)NC[C@@H](O)CO)s4)CC3)Oc3c(F)cccc32)cc1` [Compound 95] was run?
**A.** 50 to 499 nM

**Q.** With `CC(C)(C)c1ccc(CN2CCC3(CCN(c4ncc(C(=O)NCC5OCCO5)s4)CC3)Oc3c(F)cccc32)cc1` [Compound 88] as the compound, how does the IC50 read?
**A.** 0.5 to 49 nM

**Q.** Which IC50 does the source give for `CC(C)(C)c1ccc(CN2CCC3(CCN(c4ncc(C(=O)NCCC(=O)O)s4)CC3)Oc3c(F)cccc32)cc1` [Compound 123] here?
**A.** 0.5 to 49 nM

**Q.** `CC(C)(C)c1ccc(CN2CCC3(CCN(c4ncc(C(=O)NCCCO)s4)CC3)Oc3c(F)cccc32)cc1` [Compound 96] was tested. Which IC50 did it give?
**A.** 0.5 to 49 nM

**Q.** Which IC50 does the source give for `CC(C)(C)c1ccc(CN2CCC3(CCN(c4ncc(C(=O)NCc5ccccn5)s4)CC3)Oc3c(F)cccc32)cc1` [Compound 85] here?
**A.** 50 to 499 nM

**Q.** Which IC50 does the source give for `CN(C)CCNC(=O)c1cnc(N2CCC3(CC2)CCN(Cc2ccc(C(C)(C)C)cc2)c2cccc(F)c2O3)s1` [Compound 105] here?
**A.** > 10000 nM

**Q.** `O=C(NCCCO)c1cnc(N2CCC3(CC2)CCN(Cc2cccc(C(F)(F)F)c2)c2cccc(F)c2O3)s1` [Compound 131] was tested. Which IC50 did it give?
**A.** 0.5 to 49 nM

**Q.** `CC(C)(C)c1ccc(CN2CCC3(CCN(c4ncc(C(=O)O)s4)CC3)Oc3ccccc32)cc1` [Compound 64] was tested. Which IC50 did it give?
**A.** 50 to 499 nM

**Q.** With `COC(=O)CCNC(=O)c1cnc(N2CCC3(CC2)CCN(Cc2ccc(C(C)(C)C)cc2)c2ccccc2O3)s1` [Compound 69] as the compound, how does the IC50 read?
**A.** 0.5 to 49 nM

**Q.** Which IC50 does the source give for `Cc1ccc(CNC(=O)c2cnc(N3CCC4(CC3)CCN(Cc3ccc(C(C)(C)C)cc3)c3cccc(F)c3O4)s2)o1` [Compound 104] here?
**A.** 50 to 499 nM

**Q.** Which IC50 does the source give for `CC(C)(C)c1ccc(CN2CCC3(CCN(c4ncc(C(=O)NC[C@H]5CC[C@H](O)C5)s4)CC3)Oc3c(F)cccc32)cc1` [Compound 82] here?
**A.** > 10000 nM

**Q.** `O=C(O)CNC(=O)c1cnc(N2CCC3(CC2)CCN(Cc2cccc(C(F)(F)F)c2)c2ccccc2O3)s1` [Compound 136] was tested. Which IC50 did it give?
**A.** 0.5 to 49 nM

same assay, conditions: Table 3, compounds of formula (Ic); protein from HepG2 cell P2 pellet, 20 μM stearoyl-CoA, 15 min at 25° C.; read-out: Ave IC50

**Q.** How did the IC50 turn out when `O=C(NCCc1c[nH]cn1)c1ccc(N2CCC3(CC2)CCN(Cc2cccc(C(F)(F)F)c2)c2ccccc2O3)nn1` [Compound 162] was run?
**A.** 0.5 to 49 nM

**Q.** With `CC(C)(C)CCNC(=O)c1ccc(N2CCC3(CC2)CCN(Cc2cccc(C(F)(F)F)c2)c2ccccc2O3)nn1` [Compound 159] as the compound, how does the IC50 read?
**A.** 500 to 10000 nM

**Q.** For `CCc1ccc(CN2CCC3(CCN(c4ccc(C(=O)NCCC5CC5)nn4)CC3)Oc3ccccc32)cc1` [Compound 176], which IC50 is on record?
**A.** 0.5 to 49 nM

**Q.** `O=C(NCCc1ccccc1)c1ccc(N2CCC3(CC2)CCN(Cc2cccc(C(F)(F)F)c2)c2ccccc2O3)nn1` [Compound 155] was tested. Which IC50 did it give?
**A.** 0.5 to 49 nM

**Q.** `NC(=O)c1ccc(N2CCC3(CC2)CCN(Cc2cccc(C(F)(F)F)c2)c2ccccc2O3)nn1` [Compound 164] was tested. Which IC50 did it give?
**A.** 0.5 to 49 nM

**Q.** Which IC50 does the source give for `CC(C)CCNC(=O)c1ccc(N2CCC3(CC2)CCN(Cc2cccc(C(F)(F)F)c2)c2ccccc2O3)nn1` [Compound 160] here?
**A.** 50 to 499 nM

**Q.** How did the IC50 turn out when `O=C(NCC1CC1)c1ccc(N2CCC3(CC2)CCN(Cc2cccc(C(F)(F)F)c2)c2ccccc2O3)nn1` [Compound 168] was run?
**A.** 50 to 499 nM

**Q.** For `O=C(NCCC1CC1)c1ccc(N2CCC3(CC2)CCN(Cc2cc4ccccc4o2)c2ccccc2O3)nn1` [Compound 180], which IC50 is on record?
**A.** 0.5 to 49 nM

**Q.** Which IC50 does the source give for `O=C(NCCc1cccnc1)c1ccc(N2CCC3(CC2)CCN(Cc2cccc(C(F)(F)F)c2)c2ccccc2O3)nn1` [Compound 163] here?
**A.** 0.5 to 49 nM

**Q.** With `COC(=O)CCNC(=O)c1ccc(N2CCC3(CC2)CCN(Cc2cccc(C(F)(F)F)c2)c2ccccc2O3)nn1` [Compound 166] as the compound, how does the IC50 read?
**A.** 0.5 to 49 nM

**Q.** Which IC50 does the source give for `COC(=O)CCNC(=O)c1ccc(N2CCC3(CC2)CCN(Cc2cccc(C(F)(F)F)c2)c2cccc(F)c2O3)nn1` [Compound 173] here?
**A.** 0.5 to 49 nM

**Q.** How did the IC50 turn out when `CN(C)CCNC(=O)c1ccc(N2CCC3(CC2)CCN(Cc2cccc(C(F)(F)F)c2)c2ccccc2O3)nn1` [Compound 154] was run?
**A.** 500 to 10000 nM

**Q.** Which IC50 does the source give for `CC(C)Oc1ccc(CN2CCC3(CCN(c4ccc(C(N)=O)nn4)CC3)Oc3ccccc32)cc1` [Compound 179] here?
**A.** 0.5 to 49 nM

**Q.** Which IC50 does the source give for `CC(C)(C)c1ccc(CN2CCC3(CCN(c4ccc(C(=O)NCCC5CC5)nn4)CC3)Oc3c(F)cccc32)cc1` [Compound 150] here?
**A.** 50 to 499 nM

**Q.** With `CC(C)CNC(=O)c1ccc(N2CCC3(CC2)CCN(Cc2cccc(C(F)(F)F)c2)c2ccccc2O3)nn1` [Compound 158] as the compound, how does the IC50 read?
**A.** 50 to 499 nM

**Q.** Which IC50 does the source give for `O=C(NCCc1ccncc1)c1ccc(N2CCC3(CC2)CCN(Cc2cccc(C(F)(F)F)c2)c2ccccc2O3)nn1` [Compound 165] here?
**A.** 0.5 to 49 nM

**Q.** Which IC50 does the source give for `O=C(NCCC1CC1)c1ccc(N2CCC3(CC2)CCN(Cc2cccc(C(F)(F)F)c2)c2ccccc2O3)nn1` [Compound 151] here?
**A.** 0.5 to 49 nM

**Q.** How did the IC50 turn out when `COC(=O)c1ccc(N2CCC3(CC2)CCN(Cc2ccc(C(C)(C)C)cc2)c2cccc(F)c2O3)nc1` [Compound 143] was run?
**A.** 50 to 499 nM
